Where no end group is shown, it is not given here.
Molecular target: T1, FGFR1C (Homo sapiens, UniProt P11362)
T1 sequence (P11362 22-376 limits assumed): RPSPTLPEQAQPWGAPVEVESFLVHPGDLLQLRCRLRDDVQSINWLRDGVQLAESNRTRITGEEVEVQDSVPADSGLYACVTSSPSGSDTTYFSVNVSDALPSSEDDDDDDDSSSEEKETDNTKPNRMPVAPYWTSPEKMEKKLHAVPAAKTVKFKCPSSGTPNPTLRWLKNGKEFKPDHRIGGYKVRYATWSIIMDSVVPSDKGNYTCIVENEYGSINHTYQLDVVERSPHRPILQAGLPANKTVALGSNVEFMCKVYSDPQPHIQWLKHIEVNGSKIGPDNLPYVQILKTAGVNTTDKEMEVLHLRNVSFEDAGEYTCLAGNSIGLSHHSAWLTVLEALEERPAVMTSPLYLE
Assay: SPR detection of interaction with FGFR1C
Format: binding
Experimental: Amino acid sequence of P9 degraded short peptide P48 was analyzed using Amber11 program. An initial structure of the P9 and P48 peptide chains was constructed using a sequence command in a Tleap module of the Amber11 program. Hydrogen atoms were added using the Tleap module of the Amber11 program, a […] TIP3P solvent box was added at a distance of 10 Å from the peptide chain, and counter ions were added to the two systems to keep the system electrically neutral. The system was subjected to 20-ns NPT system simulation to obtain an optimal spatial structure. […] The last 1 ns of trajectory obtained by molecular dynamics simulation of the system was selected to calculate the binding free energy, the molecules of the solvent of water and counter ion were deleted, and conformation was recorded every 10 ps to obtain a total of 101 structures. The binding free energy between FGF2 and FGFR1 were calculated by a molecular mechanics-generalized born surface area (MM-GBSA) method. The binding free energy and energy decomposition of amino acid residues were calculated using an MMPBA.py script provided by the Amber11. […] After bFGF and FGFR1 flew into the sensor chip, P48 (50 μM, 100 μM, 200 μM, 300 μM and 400 μM) was injected into a sensor surface, and the obtained data was analyzed using BIAevaluation software. […]

## SPPRYPGGGS-NH2 [P48, Ser-Pro-Pro-Arg-Tyr-Pro-Gly-Gly-Gly-Ser-NH2]
  binding to FGFR1C: can be bound
  rank of binding degree among FGFRs: FGFR1C has the strongest binding degree

Source: patent US20240101600A1, “FIBROBLAST GROWTH FACTOR RECEPTOR (FGFR)-TARGETING ANTAGONISTIC SHORT PEPTIDE” (WENZHOU MEDICAL UNIVERSITY, priority 2019, published 2024)
